Values of other authors in patent publication US20110159080A1, “COMPOSITION COMPRISING LIPOSOME-ENTRAPPED DOXORUBICIN AND METHODS OF ADMINISTRATION” (priority 2008, published 2011).

Experiments:
[1] = tested on: recurrent stage III or IV ovarian cancer
[2] = tested on: recurrent ovarian cancer
[3] = tested on: platinum resistant advanced ovarian carcinoma; conditions: human, in vivo
[4] = tested on: persistent or recurrent epithelial ovarian cancer
[5] = tested on: xenotransplant models of colon cancer; conditions: nude (athymic) mice
[6] = tested on: primary or secondary platinum-resistant ovarian cancer; conditions: bevacizumab 15 mg/kg every 21 days

## N.N.O=C([O-])C1(C(=O)[O-])CCC1.[Pt+2] [carboplatin]
[1]; DOXIL 30 mg/m^2 plus carboplatin AUC 5 or carboplatin alone AUC 5, every 4 weeks, p=0.02
  response rate: 32%
[1]; every 4 weeks
  estimated median PFS: 8 months
[1]; every 4 weeks, p=0.02
  estimated median overall survival: 18 months

## CC[C@@]1(O)C(=O)OCc2c1cc1n(c2=O)Cc2cc3c(CN(C)C)c(O)ccc3nc2-1 [topotecan]
[2]; DOXIL 50 mg/m^2 every 4 weeks, topotecan 1.5 mg/m^2/day for 5 days every 3 weeks
  toxicity profile: significant myelosuppression and alopecia
[2]; subset with platinum-sensitive disease, p=0.008
  median OS: 71.1 weeks
[2]; subset with platinum-sensitive disease, p=0.037
  median PFS: 23.3 weeks

## bevacizumab: recombinant humanized monoclonal IgG1 antibody that binds to and inhibits human vascular endothelial growth factor (VEGF)
[3]
  cases of perforation: no cases of perforation
[4]; 62 eligible subjects
  complete responses (number of subjects): two
  subjects surviving progression free for at least 6 months: 40.3%
[4]; bevacizumab 15 mg/kg IV every 21 days, 62 eligible subjects
  subjects with clinical response: 21.0%
[4]; in vivo
  Grade 3 adverse events: GI (number): 3
  Grade 3 adverse events: coagulation (number): 1
  Grade 3 adverse events: constitutional (number): 1
  Grade 3 adverse events: dyspnea (number): 1
  Grade 3 adverse events: hematologic (number): 1
  Grade 3 adverse events: hepatic (number): 1
  Grade 3 adverse events: hypertension (number): 6
  Grade 3 adverse events: pain (number): 3
  Grade 3 adverse events: thromboembolism (number): 1
  Grade 4 adverse events: proteinuria (number): 1
  Grade 4 adverse events: pulmonary embolus (number): 1
  Grade 4 adverse events: vomiting and constipation (number): 1
  median PFS: 4.7 months
  median overall survival: 17 months
  median response duration: 10 months
[5]
  effect on metastatic disease progression: inhibition of metastatic disease progression
  effect on microvascular growth: reduction in microvascular growth
[6]
  6-month PFS rate: 27%
  response rate: 16%
